# Earlier results in patent US20020064550A1, “Edible candy compositions and methods of using same” (AkPharma, Inc., priority 2000, published 2002).
# Read-outs that look alike come from different tables or passages of the source.
# What was measured:
# [1] = tested on: symptoms of bladder irritants; conditions: 200 reported patients; calcium glycerophosphate taken with foods; 79.4% without calcium glycerophosphate
# dental caries [2] = conditions: sugar-content diets of animals
# dental caries [3] = conditions: human children
substance,measurement,setting,value
"1,2,3-propanetriol, mono(dihydrogen phosphate) calcium salt (1:1) [calcium glycerophosphate]",over-all symptoms of bladder irritants,[1],14.6%
same,dental caries reduction,dental caries [2],confirm dental caries reduction
same,dental caries reduction,dental caries [3],fail to confirm same
